# Laboratory results as given in ChEMBL document CHEMBL1201862, “PubChem BioAssay data set” (2004).
#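 These data come from cells grown in 96-well plates and exposed to compound for 48 hours at five concentrations. At the GI50, growth is halved.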 The source made the active and inactive calls. Cut-off read from the data, not from the text of the source: active = GI50 up to about 1.1 µM and inactive = higher.
# Legend:
# Experiment in all cases: NCI-60 cell line screen, 48 h
# ACHN = system: ACHN
# BT-549 = system: BT-549
# HCT-15 = system: HCT-15
# HOP-62 = system: HOP-62
# Hs-578T = system: Hs-578T
# IGROV-1 = system: IGROV-1
# K562 = system: K562
# LOX IMVI = system: LOX IMVI
# M14 = system: M14
# MDA-MB-435 = system: MDA-MB-435
# NCI-H460 = system: NCI-H460
# NCI/ADR-RES = system: NCI/ADR-RES
# OVCAR-5 = system: OVCAR-5
# RXF 393 = system: RXF 393
# SF-295 = system: SF-295
# SW-620 = system: SW-620
# U-251 = system: U-251
# UO-31 = system: UO-31
# NCI-H522 = system: NCI-H522
Structure (SMILES),GI50 (ACHN),GI50 (BT-549),GI50 (HCT-15) [µM],GI50 (HOP-62),GI50 (Hs-578T),GI50 (IGROV-1),GI50 (K562),GI50 (LOX IMVI),GI50 (M14),GI50 (MDA-MB-435),GI50 (NCI-H460),GI50 (NCI/ADR-RES),GI50 (OVCAR-5),GI50 (RXF 393),GI50 (SF-295),GI50 (SW-620),GI50 (U-251),GI50 (UO-31),GI50 (NCI-H522)
Cc1ccc(C2(c3ccc(Cl)cc3)c3ccccc3C3=NCCN32)cc1 (stereo unspecified),6.93 µM (inactive),12.6 µM (inactive),11.6,9.68 µM (inactive),14.2 µM (inactive),2.15 µM (inactive),3.74 µM (inactive),12.8 µM (inactive),3.7 µM (inactive),2.86 µM (inactive),6 µM (inactive),10 µM (inactive),12.5 µM (inactive),2.31 µM (inactive),1.59 µM (inactive),10.8 µM (inactive),11.5 µM (inactive),3.37 µM (inactive),–
CO/C(=N\N=C\c1cccc(Cl)c1)c1ccncc1,> 10 µM (inactive),> 10 µM (inactive),> 10,> 10 µM (inactive),–,–,> 10 µM (inactive),> 10 µM (inactive),> 10 µM (inactive),> 10 µM (inactive),> 10 µM (inactive),> 10 µM (inactive),> 10 µM (inactive),> 10 µM (inactive),> 10 µM (inactive),> 10 µM (inactive),> 10 µM (inactive),> 10 µM (inactive),> 10 µM (inactive)
CN1CCN(C(=S)N(C(=O)c2cccs2)c2ccccc2)CC1,> 100 µM (inactive),> 100 µM (inactive),> 100,–,> 100 µM (inactive),> 100 µM (inactive),> 100 µM (inactive),> 100 µM (inactive),> 100 µM (inactive),> 100 µM (inactive),> 100 µM (inactive),–,94.6 µM (inactive),> 100 µM (inactive),> 10 µM (inactive),> 100 µM (inactive),> 100 µM (inactive),> 100 µM (inactive),> 100 µM (inactive)
O=C(O)CO[C@@]12C#C/C=C\C#C[C@@H]3N(C(=O)Oc4ccccc4)c4ccccc4[C@]14O[C@@]34CCC2,85.9 µM (inactive),30.1 µM (inactive),8.55,83.8 µM (inactive),19.4 µM (inactive),27.2 µM (inactive),23.7 µM (inactive),40.5 µM (inactive),41.1 µM (inactive),1.53 µM (inactive),36.4 µM (inactive),31.6 µM (inactive),–,–,> 10 µM (inactive),47.6 µM (inactive),19.1 µM (inactive),24.1 µM (inactive),33.5 µM (inactive)
COc1ccc(O)c(/C=N/CCC/N=C/c2cc(OC)ccc2O)c1,24.7 µM (inactive),23.1 µM (inactive),18.1,52.1 µM (inactive),24.5 µM (inactive),34.4 µM (inactive),10.9 µM (inactive),–,37.2 µM (inactive),22.6 µM (inactive),41.4 µM (inactive),–,38.3 µM (inactive),25.6 µM (inactive),18.1 µM (inactive),39 µM (inactive),16.7 µM (inactive),33.5 µM (inactive),46 µM (inactive)
O=C(CN1c2ccccc2Sc2ccccc21)n1cnc2ccccc21,> 100 µM (inactive),> 100 µM (inactive),99.8,> 100 µM (inactive),> 100 µM (inactive),> 100 µM (inactive),99.5 µM (inactive),95.3 µM (inactive),59.2 µM (inactive),> 100 µM (inactive),97.5 µM (inactive),97.5 µM (inactive),80 µM (inactive),> 100 µM (inactive),> 100 µM (inactive),> 100 µM (inactive),43.5 µM (inactive),75.9 µM (inactive),–
CCOC(=O)C(=[N+]=[N-])C(=O)Nc1nn2nnnc2c2ccccc12,> 100 µM (inactive),> 100 µM (inactive),–,> 100 µM (inactive),–,> 100 µM (inactive),> 100 µM (inactive),> 100 µM (inactive),> 100 µM (inactive),> 100 µM (inactive),> 100 µM (inactive),> 100 µM (inactive),> 100 µM (inactive),> 100 µM (inactive),> 100 µM (inactive),> 100 µM (inactive),> 100 µM (inactive),> 100 µM (inactive),> 100 µM (inactive)
CS(=O)(=O)CCC(N)P(=O)(O)O (stereo unspecified),> 100 µM (inactive),> 100 µM (inactive),> 100,> 100 µM (inactive),> 100 µM (inactive),> 100 µM (inactive),> 100 µM (inactive),> 100 µM (inactive),> 100 µM (inactive),> 100 µM (inactive),> 100 µM (inactive),> 100 µM (inactive),> 100 µM (inactive),–,> 100 µM (inactive),> 100 µM (inactive),> 100 µM (inactive),> 100 µM (inactive),> 100 µM (inactive)
O=C1CC(C(O)CO)CC(=O)N1 (stereo unspecified),> 100 µM (inactive),> 100 µM (inactive),> 100,> 100 µM (inactive),> 100 µM (inactive),> 100 µM (inactive),> 100 µM (inactive),> 100 µM (inactive),> 100 µM (inactive),> 100 µM (inactive),> 100 µM (inactive),> 100 µM (inactive),> 100 µM (inactive),–,> 100 µM (inactive),> 100 µM (inactive),> 100 µM (inactive),> 100 µM (inactive),> 100 µM (inactive)
C=C(COC(=O)C(C)C)[C@H]1Oc2ccc(C(C)=O)cc2[C@@H]1OC(=O)C(C)C,> 100 µM (inactive),> 100 µM (inactive),> 100,> 100 µM (inactive),42.6 µM (inactive),> 100 µM (inactive),> 100 µM (inactive),> 100 µM (inactive),> 100 µM (inactive),> 100 µM (inactive),> 100 µM (inactive),–,> 100 µM (inactive),> 100 µM (inactive),> 100 µM (inactive),> 100 µM (inactive),> 100 µM (inactive),> 100 µM (inactive),–
CC[C@](C)(O)C(=O)O[C@H]1C(=O)O[C@@H]2C[C@H]3C(C)=CC(=O)[C@@H](O)[C@]3(C)[C@H]3[C@@]4(O)OC[C@]32[C@@H]1[C@@H](C)[C@H]4O [GLAUCARUBINONE],0.292 µM (active),0.229 µM (active),0.0885,0.0794 µM (active),0.167 µM (active),0.05 µM (active),0.05 µM (active),0.0354 µM (active),0.107 µM (active),1.4 µM (inactive),0.0912 µM (active),2.27 µM (inactive),0.658 µM (active),0.05 µM (active),0.116 µM (active),0.075 µM (active),0.05 µM (active),0.378 µM (active),–
CCC1OC2(C)CC(C#N)(C#N)C1(C#N)C(=N)O2 (stereo unspecified),> 100 µM (inactive),> 100 µM (inactive),–,–,> 100 µM (inactive),> 100 µM (inactive),> 100 µM (inactive),> 100 µM (inactive),> 100 µM (inactive),> 100 µM (inactive),–,–,> 100 µM (inactive),> 100 µM (inactive),> 100 µM (inactive),> 100 µM (inactive),> 100 µM (inactive),> 100 µM (inactive),–
